{
  "source": "paper PMC4010497",
  "about": "“Synthesis and Evaluation of Fluorine-Substituted Phenyl Acetate Derivatives as Ultra-Short Recovery Sedative/Hypnotic Agents” (PLoS ONE, 2014)",
  "system": "GABAA receptor",
  "experiment": "GABAA radioligand binding assay ([3H]EBOB)",
  "settings": "50 µM compound, 0.5 nM [3H]EBOB, rat frontoparietal cortex",
  "description": "All the new compounds were dissolved in 5% DMSO.\nSpecific binding was determined in the presence of compounds.\nMembrane suspensions were thawed and centrifuged in incubation buffer at 10,000×g for 10 min and washed by a similar centrifugation. For displacement studies, membrane suspensions (5 mg original wet wt./ml) were incubated with 0.5 nM [^3H]EBOB ([…], Perkin Elmer Life Sciences, Boston, MA, USA) in the absence or presence of 50 µM of new compounds or reference drug for 2 h at 25°C. Nonspecific binding was determined in the presence of 10 µM Bicuculline. Bicuculline and picrotoxin were frequently used to determine the nonspecific binding when [3H]EBOB as radioligand [17]. Triplicate 1 ml samples were filtered on Whatman GF/B filters under vacuum with a Brandel Harvester and washed with 3×3 ml ice-cold buffer.",
  "data": [
    {"smiles": "CCOc1cc(CC(=O)OCC(F)(F)F)ccc1OCC(=O)N(CC)CC", "note": "[Compound 5j, 2,2,2-trifluoroethyl 2-(4-(2-(diethylamino)-2-oxoethoxy)-3-ethoxyphenyl)acetate]", "values": [
      {"measurement": "GABAA binding (50 µmol) (Mean ± SD), percentage of inhibition", "value": "90.5±6.9", "unit": "%"}
    ]}
  ]
}
